Patent publication US20220390459A1, “RAPID, HIGH-INTENSITY CHEMILUMINESCENT DIOXETANES” (Beckman Coulter, Inc., priority 2019, published 2022)

Tested on: alkaline phosphatase
Experiment: Chemiluminescence intensity over time after combining the phosphate dioxetane with alkaline phosphatase solution
Format: biochemical
Details: for intensity and speed of luminescence compared with other examples (in words): AP8, TBE enhancer in 221 buffer, concentrations differ per example; for profile of emission intensity over time (in words): alkaline phosphatase in 221 buffer, compound and TBE concentration differ per example
[1] = compound 0.25 mg/mL, TBE enhancer 5 mg/mL in 221 buffer, 100 μL + 10 μL AP8, 37° C.
[2] = compound 0.2 mg/mL in 221 buffer without TBE enhancer, 100 μL + 10 μL AP9 [1.24E-20 mole/μL], 37° C.
[3] = compound 0.125 mg/mL, TBE enhancer 2.5 mg/mL in 221 buffer, 100 μL + 10 μL AP8, 37° C.
[4] = compound 0.25 mg/mL, TBE enhancer 2.5 mg/mL in 221 buffer, 100 μL + 10 μL AP8, 37° C.
[5] = compound 1.25 mg/mL, TBE enhancer 5 mg/mL in 221 buffer, 100 μL + 10 μL AP8, 37° C.

Row | SMILES | intensity and speed of luminescence compared with other examples (in words) (37° C.) | profile of emission intensity over time (in words) (37° C.) | time to reach maximum, steady-state intensity [1] [min] | Σ value [1] | other results
1 | COC1(c2ccc(-c3cccs3)c(OP(=O)([O-])[O-])c2)OOC12C1CC3CC(C1)CC2C3.[Na+].[Na+] (centres unmarked) [Example 14] | higher intensity and faster response compared to the compound of Examples 12-13 | rapid increase in intensity | ≤ 1 | 9.97E+05 | 
2 | COC1(c2ccc(-c3ccc(C#N)s3)c(OP(=O)([O-])[O-])c2)OOC12C1CC3CC(C1)CC2C3.[Na+].[Na+] (centres unmarked) [Example 17] |  | rapid increase in intensity |  |  | time to reach maximum, steady-state intensity [2]: ≤ 2 min; Σ value [2]: 2.77E+05
3 | COC1(c2ccc(-c3ccsc3)c(OP(=O)([O-])[O-])c2)OOC12C1CC3CC(C1)CC2C3.[Na+].[Na+] (centres unmarked) [Example 15] | higher intensity and faster response compared to the compound of Examples 12-13 | rapid increase in intensity | ≤ 2 | 7.38E+05 | 
4 | COC1(c2ccc(Cl)c(OP(=O)([O-])[O-])c2)OOC12C1CC3CC2CC(Cl)(C3)C1.[Na+].[Na+] (centres unmarked) [Example 13, reference compound] |  | slow and gradual increase in emission intensity |  |  | profile of emission intensity over time (in words) (37° C., listed as Tropix CDP-Star®): slow luminescence; time to reach maximum light intensity or steady-state plateau [3]: more than 15 minutes; Σ value [3]: 1.91E+05
5 | C=Cc1ccc(C2(OC)OOC23C2CC4CC(C2)CC3C4)cc1OP(=O)([O-])[O-].[Na+].[Na+] (centres unmarked) [Example 16] | higher intensity and faster response compared to the compound of Examples 12-15 | rapid increase in intensity |  |  | time to reach maximum, steady-state intensity [4]: less than 3 minutes; Σ value [4]: 1.59E+06
6 | COC1(c2cccc(OP(=O)([O-])[O-])c2)OOC12C1CC3CC(C1)CC2C3.[Na+].[Na+] (centres unmarked) [Example 12, 4-methoxy-4-(3-phosphatephenyl)spiro[1,2-dioxetane-3,2′-adamantane], reference compound] |  | slow and gradual increase in emission intensity |  |  | profile of emission intensity over time (in words) (37° C., listed as Lumigen® PPD): slow luminescence; time to reach maximum light intensity or steady-state plateau [5]: more than 15 minutes; Σ value [5]: 2.27E+05
